# Measurements taken from paper PMC11954736 (BioImpacts : BI, 2024).
# How the values were obtained:
# MCF7 = assay: Cell viability assay; format: cell-based, human; details: MTT, 48 h exposure; LD50: concentration that causes 50% of cell viability
# B16 = assay: Cell viability assay; format: cell-based, murine; details: MTT, 48 h exposure; LD50: concentration that causes 50% of cell viability
# PC12 cells = assay: Cell viability assay; format: cell-based, rat; details: MTT, 48 h exposure, studied concentrations
# [1] = test system: Aβ-induced memory impairment in Wistar rats; assay: Morris water maze; format: in vivo; details: Aβ induced AD rats, oral, 21 days; 3rd and fourth training days
# TNFα = assay: Western blot of TNFα in rat hippocampal tissue; format: in vivo, Wistar rats; details: Aβ induced AD rats, oral, 21 days
# NF-κB = assay: Western blot of NF-κB in rat hippocampal tissue; format: in vivo, Wistar rats; details: Aβ induced AD rats, oral, 21 days
Compound,MCF7 (LD50 µM) (MCF7) [µM],B16 (LD50 µM) (B16) [µM],PC12 (LD50 µM) (PC12 cells),PC12 (LD50 µM) (PC12 cells; listed as galantamine),"Escape latency time, MWM [1]",TNFα level in hippocamp tissue (western blot) (TNFα),NF-κB level in hippocamp tissue (western blot) (NF-κB)
COc1ccc2c3c1O[C@H]1C[C@@H](O)C=C[C@@]31CCN(C)C2 [Galantamine],31.19,34.09,No growth inhibition*,no significant effect,–,–,–
COc1cc2c(cc1OC)C(=O)C(CC1CCN(Cc3ccccc3)CC1)C2 (stereo not shown) [Donepezil],–,–,–,–,significantly decreased,Downregulation,Downregulation
